Like-named read-outs stand apart in the source and are kept apart here.
Tests used:
[1] = test system: C57BL/6N female mice; assay: Open field (locomotor activity); type: in vivo; details: for general locomotion in the open field (move distance, move time): 10 min
Description: Each mouse was used only once. […] . […] Thereafter it was replaced by the obturator.
The open field consisted of a transparent plastic box with white floor (41 x 41 x 41 cm) equipped with an automated activity monitoring system (True Scan, Coulbourn Instruments, Allentown, Pennsylvania, USA). The illumination at floor level was 150 lux. Mice were individually placed into the centre of the open field and their behaviours were tracked with the activity monitoring system. The time of locomotor activity, the overall distance travelled by the mice and the fraction of locomotor activity in the center area (center distance and center time) were monitored for 10 min. The arena was thoroughly cleaned with wet paper towels and dried at the end of each test.
Statistical analysis: All data from behavioural studies are shown as mean ± SEM. Statistical analysis was performed using the analysis of variance (ANOVA), followed by post hoc multiple comparisons Tukey-Kramer test, except comparison of alternation rates with the theoretical value of chance (defined as 50%) which was evaluated by Wilcoxon signed rank test. All statistical analyses were carried out by using the Graphpad Prism Program, version 4.0, Graphpad software, Inc.

[2] = test system: C57BL/6N female mice; assay: Object recognition task; details: for object recognition (memory): normal mice; for effect on scopolamine-induced impairment of object recognition: scopolamine-pretreated mice
[3] = molecular target: T1, electric eel AChE (EC 3.1.1.7) (Electrophorus electricus, UniProt O42275); assay: Spectrophotometric assay for AChE inhibitory activity (modified Ellman's method); type: biochemical; details: 96-well microplate, 1% DMSO; read-out: AChE inhibitory activity IC50
T1 construct: purchased Sigma-Aldrich, Germany
T1 sequence (O42275 24-633): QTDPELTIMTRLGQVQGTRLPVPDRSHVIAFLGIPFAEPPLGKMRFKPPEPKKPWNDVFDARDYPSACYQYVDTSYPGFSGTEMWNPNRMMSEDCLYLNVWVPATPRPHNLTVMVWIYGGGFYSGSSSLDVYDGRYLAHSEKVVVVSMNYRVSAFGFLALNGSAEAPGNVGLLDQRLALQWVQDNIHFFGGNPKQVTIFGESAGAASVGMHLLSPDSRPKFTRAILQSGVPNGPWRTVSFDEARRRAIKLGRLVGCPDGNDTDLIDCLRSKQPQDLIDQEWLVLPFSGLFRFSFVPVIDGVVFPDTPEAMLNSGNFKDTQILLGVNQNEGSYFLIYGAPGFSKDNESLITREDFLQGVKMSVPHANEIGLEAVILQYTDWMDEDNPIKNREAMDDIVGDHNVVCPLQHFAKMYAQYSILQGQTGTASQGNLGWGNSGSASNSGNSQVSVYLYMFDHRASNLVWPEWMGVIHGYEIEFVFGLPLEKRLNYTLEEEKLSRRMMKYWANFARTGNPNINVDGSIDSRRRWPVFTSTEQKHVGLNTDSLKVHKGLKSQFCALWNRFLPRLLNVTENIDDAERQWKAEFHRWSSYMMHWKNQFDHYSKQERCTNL

[4] = molecular target: T2, σ receptors labelled by [^3H](+)-pentazocine (σ1) (Cavia porcellus, UniProt Q60492); assay: Sigma receptor binding assay, [3H](+)-pentazocine; design: species or system guinea pig
T2 construct: from tissue; host or cells: guinea pig brain membranes
T2 sequence (Q60492 whole entry): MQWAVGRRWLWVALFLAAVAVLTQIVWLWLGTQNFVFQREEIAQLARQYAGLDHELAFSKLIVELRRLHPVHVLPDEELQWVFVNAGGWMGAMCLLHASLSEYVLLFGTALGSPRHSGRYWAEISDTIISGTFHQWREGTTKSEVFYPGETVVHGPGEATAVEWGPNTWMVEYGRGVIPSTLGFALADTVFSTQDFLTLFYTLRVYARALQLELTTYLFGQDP
Procedure: (§1) Filters were washed three times with 5 ml of ice-cold 10 mM Tris-HCI buffer (pH 8). The bound radioactivity was measured by liquid scintillation counting (Beckman Coulter™ LS6500). […] The values are expressed as the mean ± S.E.M of 2 - 4 independent experiments, each performed in duplicate.

[5] = molecular target: σ receptors labelled by [^3H]DTG (σ1 + σ2); assay: Sigma receptor binding assay, [3H]DTG; details: read-out: IC50 ± SEM [^3H]DTG (σ1 + σ2); guinea pig brain membranes; compounds 1-5 tested up to 10 µM
Procedure: as §1

[6] = molecular target: T3, k opioid receptors (Cavia porcellus, UniProt P41144); assay: Opioid receptor binding assay, [3H]U69,593, guinea pig brain membranes
T3 construct: Membrane fractions were prepared from Sprague-Dawley rat or guinea pig brains; from tissue; host or cells: guinea pig brain (without cerebella) membranes
T3 sequence (P41144 whole entry): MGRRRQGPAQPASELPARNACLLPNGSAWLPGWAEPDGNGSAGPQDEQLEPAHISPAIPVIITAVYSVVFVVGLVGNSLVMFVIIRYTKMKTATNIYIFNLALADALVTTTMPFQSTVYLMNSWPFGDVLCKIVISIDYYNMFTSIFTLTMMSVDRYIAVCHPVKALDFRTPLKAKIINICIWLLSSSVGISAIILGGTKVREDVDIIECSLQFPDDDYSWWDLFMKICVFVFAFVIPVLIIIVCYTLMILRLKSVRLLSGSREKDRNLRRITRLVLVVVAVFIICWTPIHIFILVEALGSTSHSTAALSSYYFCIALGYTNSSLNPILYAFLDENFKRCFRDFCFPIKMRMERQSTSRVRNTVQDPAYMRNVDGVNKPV
Procedure: (§2) Briefly, brains without cerebella were homogenised on ice in 5 volumes of ice-cold 50 mM Tris-HCI buffer (pH 7.4) and diluted in 30 volumes of the same buffer. After centrifugation at 40,000 x g for 20 min at 4°C, the pellets were resuspended in 30 volumes of Tris-HCI buffer and incubated at 37 °C for 30 min (rat brain) or for 10 min (guinea pig brain). The centrifugation step was repeated and the final pellets were resuspended in 5 volumes of 50 mM Tris-HCI buffer (pH 7.4) containing 0.32 M sucrose to give a protein concentration of 4 - 6 mg/ml. Protein concentration was determined by the method of Bradford using bovine serum albumin as standard.
(§3) Binding experiments were performed in 50 mM Tris-HCI buffer (pH 7.4) in a final volume of 1 ml containing 0.3 - 0.5 mg protein and different concentrations of the compounds. […] Guinea pig brain membranes were incubated with [^3H]U69,593 (30 min, 30 °C). Non-specific binding was determined in the presence of 10 µM unlabeled naloxone. […] Inhibition constant (Ki) values were calculated from competition binding curves using GraphPad Prism (San Diego, CA, USA) program. The values are expressed as the mean ± S.E.M of 2-4 independent experiments, each performed in duplicate.
(§4) The morphinan-6-one compounds of the present invention were evaluated in in vitro receptor binding assays for their interaction abilities with µ, δ and k opioid receptors. […] The affinities of the compounds at k opioid receptors were determined by displacement of [^3H]U69,593 using guinea pig brain membranes.

[7] = molecular target: µ opioid receptor (Rattus norvegicus, UniProt P33535); assay: Opioid receptor binding assay, [3H]DAMGO, rat brain membranes; design: Membrane fractions were prepared from Sprague-Dawley rat or guinea pig brains; from tissue; host or cells: Sprague-Dawley rat brain (without cerebella) membranes; species or system Sprague-Dawley rat
Sequence of µ opioid receptor (P33535 whole entry): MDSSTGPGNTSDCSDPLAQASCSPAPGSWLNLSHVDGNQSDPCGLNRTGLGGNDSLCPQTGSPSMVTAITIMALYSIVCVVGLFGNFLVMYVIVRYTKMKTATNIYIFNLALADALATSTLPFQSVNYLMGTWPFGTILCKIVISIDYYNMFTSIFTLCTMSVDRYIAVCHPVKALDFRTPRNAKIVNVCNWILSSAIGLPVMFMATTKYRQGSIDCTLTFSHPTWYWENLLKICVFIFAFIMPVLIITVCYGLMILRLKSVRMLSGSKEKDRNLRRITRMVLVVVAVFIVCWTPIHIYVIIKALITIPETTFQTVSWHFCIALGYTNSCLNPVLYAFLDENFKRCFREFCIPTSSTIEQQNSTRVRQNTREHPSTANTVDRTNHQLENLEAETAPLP
Procedure: as §2, §3, §4

SMILES	relative center distance and move time ([1]; 0.01 µmol i.c.v.)	relative center distance and move time ([1]; 0.1 µmol i.c.v.)	general locomotion in the open field (move distance, move time) ([1]; 0.01 and 0.1 µmol i.c.v.)	object recognition (memory) ([2]; 0.01 µmol i.c.v.)	object recognition (memory) ([2]; 0.1 µmol i.c.v.)	effect on scopolamine-induced impairment of object recognition ([2]; 0.01 µmol i.c.v.)	IC50 [3]	IC50 [4]	IC50 [5]	Ki [6]	binding to opioid receptor K (in words) [6]	Ki ([6]; read-out: Opioid binding affinities Ki κ receptor, [3H]U69,593, guinea pig brain membranes)	Ki [7]	binding to opioid receptor µ (in words) [7]	Ki ([7]; read-out: Opioid binding affinities Ki µ receptor, [3H]DAMGO, rat brain membranes)	general locomotion in the open field (move distance, move time) ([1]; 0.1 µmol i.c.v.)	fraction of locomotor activity in the central zone ([1]; dose not given)	object recognition (memory) ([2]; 0.05 µmol i.c.v.)	effect on scopolamine-induced impairment of object recognition ([2]; 0.05 µmol i.c.v.)	selectivity among opioid receptor types ([7]; from binding, Table 3)
O=CN1CC[C@]23CC(=O)CC[C@H]2[C@H]1Cc1c(O)ccc(O)c13 [Compound 1, 1,4-dihydroxy-N-formylmorphinan-6-one]	had no effect	increased the relative center distance and move time significantly	did not influence	did not influence memory	significant impairment	abolished the scopolamine-induced impairment of object recognition	105 µM	> 10 µM	> 10 µM	> 10 µM	does not bind	> 10 µM	> 10 µM	does not bind	> 10 µM					
C=CCN1CC[C@]23CC(=O)CC[C@H]2[C@H]1Cc1cccc(OC)c13 [Compound 4, 4-methoxy-N-allylmorphinan-6-one]							1 µM	> 0.01 µM	> 10 µM	0.0331 µM			0.0202 µM	some µ opioid receptor affinity		did not influence	did not influence	small impairment of memory	abolished the scopolamine-induced impairment of object recognition	moderate selectivity for the µ type
